# Experimental data reported in US11198898B2, “Chemical tools for imaging phospholipase D activity” (CORNELL UNIVERSITY, priority 2017, dated 2021).
# Read-outs that look alike come from different tables or passages of the source.
# How the values were obtained:
# [1] = test system: commercially available PLD; assay: In vitro transphosphatidylation of DOPC with alkynols by a commercially available PLD, CuAAC with Az488, HPLC-fluorescence/ESI-MS; type: biochemical; conditions: incubated with DOPC and PLD
# [2] = test system: endogenous PLD activity in HeLa cells; assay: Azidoalcohol labelling of PMA-stimulated HeLa cells, lipid extraction, SPAAC with BODIPY-cyclooctyne 1, HPLC; type: cell-based, human; conditions: for decrease of the signal: isoform-selective inhibitor during labeling
# [3] = test system: PLD activity in live cells; type: cell-based
# [4] = test system: PLD activity in HeLa cells; assay: Imaging of PLD-mediated PA synthesis in fixed HeLa cells with alkynols, CuAAC with Az488, confocal microscopy; type: cell-based, human
# Description: To image sites of PLD-mediated PA synthesis, HeLa cells were treated with each of the three longer-chain alkynols and again stimulated PLD activity acutely with PMA, in the absence or presence of FIPI. Rather than proceeding with a whole-cell lipid extraction, cells were fixed with paraformaldehyde and subjected to CuAAC labeling with Az488. […] The observed labeling pattern was complex, likely the result of PA synthesis on membranes of multiple intracellular compartments. To determine the subcellular locations of the hexynol-based labeling, a series of colocalization studies were performed with markers of various organelle membranes. In these studies, HeLa cells were transfected with plasmids encoding fluorescent protein fusions to constituents of several organellar membranes and then the PA labeling protocol was performed using 1 mM hexynol and, where appropriate, either Az488 or an azide-containing tetramethylrhodamine derivative.
# [5] = test system: basal, endogenous PLD activity in HeLa cells; assay: Basal PLD activity: HeLa cells with 1 mM AzProp, lipid extraction, SPAAC with (1), HPLC; type: cell-based, human
# Description: Up to this point, the efforts focused on monitoring acute PLD activation in response to a stimulus, by using PMA as a model pharmacological agent to mimic activation of several signal transduction pathways. In the absence of a stimulus, however, it is known that PLD enzymes display a much lower but appreciable level of basal activity.
# To accomplish this, HeLa cells were treated with 1 mM AzProp, followed by lipid extraction, SPAAC labeling with (1), and HPLC analysis.
# [6] = test system: basal PLD activity in HeLa cells; assay: Basal PLD activity in live cells: AzProp/SPAAC labelling, confocal microscopy with isoform-selective inhibitors; type: cell-based, human; conditions: for effect of inhibitor on ER- and Golgi-derived fluorescence: HeLa cells; for effect of inhibitor on the high-fluorescence cell population: confocal microscopy
# Description: To image sites of basal PLD activity within live cells, cells were treated with 1 mM AzProp for 2 hours and rinsed. The SPAAC reaction was then performed using (1).
# Further experiments then examined the distribution of basal PLD activity at both the cellular and subcellular levels. […] Thus, at the cellular level, the high fluorescence of a minority of cells can be attributed to PLD1 activity, and the moderate fluorescence in the majority of cells to PLD2.
# The subcellular localization of AzProp-marked basal PLD activity appeared to be similar to that of AzProp-marked, PMA-stimulated PLD enzymes, that is localized to a mixture of ER, Golgi, endosomal, and lysosomal membranes. Isoform-selective inhibitors were used to probe the relative contributions of each PLD isoform to PA biosynthetic activity on different organelle membranes. […] Thus, it can be concluded that, in HeLa cells, the bulk of ER-localized, basal PLD activity is due to PLD1, whereas PLD activity on Golgi membranes is due to a roughly equal mix of PLD1 and PLD2.
# [7] = test system: mammalian PLDs in HeLa cells; assay: Alkynol labelling of PMA-stimulated HeLa cells, lipid extraction, CuAAC with Az488, HPLC-fluorescence; type: cell-based, human; conditions: for extent of incorporation into phosphatidyl alcohols compared to the shorter alkynols: at the same concentration
# Description: Further experiments evaluated whether mammalian PLDs would accept alkynols as substrates within live cells. HeLa cells were treated with each of the five alkynols for 20 minutes, stimulated acute PA biosynthesis pharmacologically using phorbol 12-myristate 13-acetate (PMA) (McDermott M, et al., Biochem. Cell Biol. 2004 February; 82(1):225-53), and then isolated total cellular lipid extracts. Following CuAAC labeling with Az488, the samples were analyzed by HPLC coupled to fluorescence detection. The HPLC-fluorescence results for the five alkynols (denoted as 1, 2, 3, 4, or 5 in panels 1-5, respectively) are shown in FIG. 2B.
# While all five alkynols were accepted as transphosphatidylation substrates in HeLa cells, they were processed by cellular PLDs with different efficiencies. […] The molecular identities of the fluorescently labeled phosphatidyl alcohols (PA analogs) were verified by analyzing labeled extracts from cells treated with each of the three longer-chain alkynols by HPLC followed by ESI-MS.
# This robust labeling with pentynol, hexynol, and heptynol led to further experiments to investigate whether the dose of alkynol could be lowered. The initial concentration of 12.9 mM alkynol corresponded to the low end of the concentration range of 0.1-0.5 mol % that is typically used in the traditional TLC-based butanol transphosphatidylation assay. Such high concentrations of alcohol, however, have several negative consequences. First, they are sufficient to compete with water in the PLD active site and reduce the ability of PLDs to synthesize PA, thus impacting PA-dependent signaling.
# [8] = HeLa cells, PMA, SPAAC with BODIPY-cyclooctyne 1
# [9] = PMA-stimulated HeLa cells, HPLC
smiles,measurement,setting,value
C#CCCO [3-butyn-1-ol],formation of the expected fluorescent phosphatidyl alcohol product (PLD substrate in vitro),[1],confirmed the identity of the expected fluorescent phosphatidyl alcohol products
"[N-]=[N+]=NCCCCO [AzBut, 4-azido-1-butanol]",fluorescent lipid species by HPLC,[2]; [8],presence of fluorescent lipid species
same,efficacy as PLD substrate,[2]; [9],performed roughly equivalently
"[N-]=[N+]=NCCO [AzEt, 2-azidoethanol]",efficacy as PLD substrate,[2],poorer PLD substrate
same,fluorescent lipid species by HPLC,[2],presence of fluorescent lipid species
same,signal-to-background among the azidoalcohols,[3],highest
"[N-]=[N+]=NCCCCCO [AzPent, 5-azido-1-pentanol]",fluorescent lipid species by HPLC,[2]; [8],presence of fluorescent lipid species
same,efficacy as PLD substrate,[2]; [9],performed roughly equivalently
"O=C(NCCN1CCC(n2c(=O)[nH]c3ccccc32)CC1)c1cc2cc(F)ccc2[nH]1 [FIPI, 5-fluoro-2-indolyl deschlorohalopemide, reference compound]",labeling in cells treated with alkynol and PLD inhibitor (negative control),"[4]; PMA, CuAAC with Az488",minimal background labeling
same,effect of inhibitor on fluorescent lipid species,"[2]; treatment of cells during the labeling procedure, PMA-stimulated",complete loss of the fluorescent lipid species
same,effect of inhibitor on basal phosphatidyl alcohol production,[5]; unstimulated HeLa cells,prevented phosphatidyl alcohol production
C[C@@H](CN1CCC(n2c(=O)[nH]c3cc(Br)ccc32)CC1)NC(=O)[C@@H]1C[C@H]1c1ccccc1 [VU0359595],decrease of the signal,[2]; PMA-stimulated HeLa cells,approximately 75%
same,share of the unstimulated PLD activity attributed to the inhibited isoform,[5],roughly half
same,effect of inhibitor on ER- and Golgi-derived fluorescence,[6],selective disappearance of most of the ER-derived fluorescence but only a portion of the Golgi-derived fluorescence
same,effect of inhibitor on the high-fluorescence cell population,[6],disappearance of high-fluorescence cells
O=C(NCCN1CCC2(CC1)C(=O)NCN2c1cccc(F)c1)c1ccc2ccccc2c1 [VU0364739],decrease of the signal,[2]; PMA-stimulated HeLa cells,~25%
same,share of the unstimulated PLD activity attributed to the inhibited isoform,[5],roughly half
same,effect of inhibitor on ER- and Golgi-derived fluorescence,[6],decrease in Golgi-derived fluorescence but had minimal effect on ER-derived fluorescence
same,effect of inhibitor on the high-fluorescence cell population,[6],did not eliminate the high-fluorescence population
"C#CCCCCCO [heptynol, 6-heptyn-1-ol]",formation of the expected fluorescent phosphatidyl alcohol product (PLD substrate in vitro),[1],confirmed the identity of the expected fluorescent phosphatidyl alcohol products
same,extent of incorporation into phosphatidyl alcohols compared to the shorter alkynols,[7],incorporated to a greater extent into phosphatidyl alcohols
"C#CCCCCO [hexynol, 5-hexyn-1-ol]",formation of the expected fluorescent phosphatidyl alcohol product (PLD substrate in vitro),[1],confirmed the identity of the expected fluorescent phosphatidyl alcohol products
same,alkynol concentration at which PA production could be detected in cells,[7]; HPLC,≥ 100 µM
same,extent of incorporation into phosphatidyl alcohols compared to the shorter alkynols,[7],incorporated to a greater extent into phosphatidyl alcohols
same,alkynol concentration permitting detection of alkynol-dependent and FIPI-sensitive fluorescence,[4]; confocal microscopy,≥ 100 µM
same,signal-to-background ratio among the three longer-chain alkynols,[4]; confocal microscopy,highest signal-to-background ratio
"C#CCCCO [pentynol, 4-pentyn-1-ol]",formation of the expected fluorescent phosphatidyl alcohol product (PLD substrate in vitro),[1],confirmed the identity of the expected fluorescent phosphatidyl alcohol products
same,extent of incorporation into phosphatidyl alcohols compared to the shorter alkynols,[7],incorporated to a greater extent into phosphatidyl alcohols
C#CCO [propynol],formation of the expected fluorescent phosphatidyl alcohol product (PLD substrate in vitro),[1],confirmed the identity of the expected fluorescent phosphatidyl alcohol products
